From patent publication US20260285850A1, “SUBSTITUTED OXAZOLIDINONES AND IMIDAZOLINONES AS HERBICIDES” (FMC CORPORATION, priority 2023, published 2026)

Columns and labels:
Assay type in all cases: in vivo
[1] = tested on: blackgrass (Alopecurus myosuroides); assay: Test A postemergence application, visual injury rating 0-100; conditions: 10 days
In short: (§1)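 Visual injury ratings (0, no effect; 100, complete control) were assigned relative to untreated plants 10 days after treatment. Test chemicals, formulated with a surfactant-containing non-phytotoxic solvent, were applied in loam-sand soil either as a directed soil spray before emergence or to emerged plants, and plants were kept in a greenhouse.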

[2] = tested on: galium (catchweed bedstraw, Galium aparine); assay: as above; conditions: 10 days
In short: as §1

[3] = tested on: green foxtail (Setaria viridis); assay: as above; conditions: 10 days
In short: as §1

[4] = tested on: ryegrass, Italian (italian ryegrass, Lolium multiflorum); assay: as above; conditions: 10 days
In short: as §1

[5] = tested on: wheat (Triticum aestivum); assay: as above; conditions: 10 days
In short: as §1

soybean (Glycine max) [6] = assay: as above; conditions: 10 days
In short: as §1

[7] = tested on: horseweed (Erigeron canadensis); assay: as above; conditions: 10 days
In short: as §1

[8] = tested on: ragweed (common ragweed, Ambrosia artemisiifolia); assay: as above; conditions: 10 days
In short: as §1

[9] = tested on: oat, wild (wild oat, Avena fatua); assay: as above; conditions: 10 days
In short: as §1

corn (Zea mays) [10] = assay: as above; conditions: 10 days
In short: as §1

[11] = tested on: barnyardgrass (Echinochloa crus-galli); assay: as above; conditions: 10 days
In short: as §1

kochia (Bassia scoparia) [12] = assay: as above; conditions: 10 days
In short: as §1

[13] = tested on: palmer (palmer amaranth, palmer pigweed, Amaranthus palmeri); assay: as above; conditions: 10 days
In short: as §1

[14] = tested on: sedge, umbrella (small-flower umbrella sedge, Cyperus difformis); assay: Test B flooded paddy test, visual plant response rating 0-100; conditions: 250 g ai/ha, Flood, applied to paddy water, evaluated after 13 days
In short: (§2)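 Visual evaluation after 13 days. Water-applied treatment, 3 cm flood depth held constant, plants at 2-leaf stage at treatment.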

rice (Oryza sativa) = assay: as above; conditions: 250 g ai/ha, Flood, applied to paddy water, evaluated after 13 days
In short: as §2

[15] = tested on: barnyardgrass (Echinochloa crusgalli); assay: as above; conditions: 250 g ai/ha, Flood, applied to paddy water, evaluated after 13 days
In short: as §2

[16] = tested on: ducksalad (Heteranthera limosa); assay: as above; conditions: 250 g ai/ha, Flood, applied to paddy water, evaluated after 13 days
In short: as §2

[17] = tested on: blackgrass (Alopecurus myosuroides); assay: Test A preemergence soil spray, visual injury rating 0-100; conditions: 10 days, 0 = no effect, 100 = complete control
In short: as §1

[18] = tested on: green foxtail (Setaria viridis); assay: as above; conditions: 10 days, 0 = no effect, 100 = complete control
In short: as §1

[19] = tested on: ryegrass, Italian (italian ryegrass, Lolium multiflorum); assay: as above; conditions: 10 days, 0 = no effect, 100 = complete control
In short: as §1

[20] = tested on: wheat (Triticum aestivum); assay: as above; conditions: 10 days, 0 = no effect, 100 = complete control
In short: as §1

soybean (Glycine max) [21] = assay: as above; conditions: 10 days, 0 = no effect, 100 = complete control
In short: as §1

[22] = tested on: ragweed (common ragweed, Ambrosia artemisiifolia); assay: as above; conditions: 10 days, 0 = no effect, 100 = complete control
In short: as §1

[23] = tested on: oat, wild (wild oat, Avena fatua); assay: as above; conditions: 10 days, 0 = no effect, 100 = complete control
In short: as §1

corn (Zea mays) [24] = assay: as above; conditions: 10 days, 0 = no effect, 100 = complete control
In short: as §1

[25] = tested on: barnyardgrass (Echinochloa crus-galli); assay: as above; conditions: 10 days, 0 = no effect, 100 = complete control
In short: as §1

kochia (Bassia scoparia) [26] = assay: as above; conditions: 10 days, 0 = no effect, 100 = complete control
In short: as §1

[27] = tested on: palmer (palmer amaranth, palmer pigweed, Amaranthus palmeri); assay: as above; conditions: 10 days, 0 = no effect, 100 = complete control
In short: as §1

[28] = 31 g ai/ha, postemergence, 0 = no effect, 100 = complete control
[29] = Postemergence, 125 g ai/ha, 0 is no effect, 100 is complete control

In the case of `CC(C)OC(=O)C1C=CC(NC(=O)C2(C)CN(c3cc(F)cc(Cl)c3)C(=O)O2)C1` (stereo not shown) [Compound 4], the “Blackgrass plant response rating (0-100)” value [1, 28] is reported as 80, the “Blackgrass plant response rating (0 to 100 scale)” value [1, 29] is reported as 90 and the “Galium plant response rating (0-100)” value [2, 28] is reported as 80. The “Galium plant response rating (0 to 100 scale)” value [2, 29] was 90, the “Foxtail, Green plant response rating (0-100)” value [3, 28] was 90 and the “Foxtail, Green plant response rating (0 to 100 scale)” value [3, 29] was 90. The “Ryegrass, Italian plant response rating (0-100)” value [4, 28] was 60, the “Ryegrass, Italian plant response rating (0 to 100 scale)” value [4, 29] was 90 and the “Wheat plant response rating (0-100)” value [5, 28] was 90. For the same compound, the “Wheat plant response rating (0 to 100 scale)” value [5, 29] was 90, the “Soybean plant response rating (0-100)” value (soybean (Glycine max) [6]; [28]) was 80 and the “Soybean plant response rating (0 to 100 scale)” value (soybean (Glycine max) [6]; [29]) was 80. For the same compound, the “Horseweed plant response rating (0-100)” value [7, 28] was 0, the “Horseweed plant response rating (0 to 100 scale)” value [7, 29] was 70 and the “Ragweed plant response rating (0-100)” value [8, 28] was 60. The “Ragweed plant response rating (0 to 100 scale)” value [8, 29] was 80, the “Oat, Wild plant response rating (0-100)” value [9, 28] was 90 and the “Oat, Wild plant response rating (0 to 100 scale)” value [9, 29] was 90. The “Corn plant response rating (0-100)” value (corn (Zea mays) [10]; [28]) was 90, the “Corn plant response rating (0 to 100 scale)” value (corn (Zea mays) [10]; [29]) was 100 and the “Barnyardgrass plant response rating (0-100)” value [11, 28] was 100. The “Barnyardgrass plant response rating (0 to 100 scale)” value [11, 29] was 100, the “Kochia plant response rating (0-100)” value (kochia (Bassia scoparia) [12]; [28]) was 70 and the “Kochia plant response rating (0 to 100 scale)” value (kochia (Bassia scoparia) [12]; [29]) was 80. The “Amaranth, Palmer plant response rating (0-100)” value [13, 28] was 50, the “Amaranth, Palmer / Pigweed, Palmer plant response rating (0 to 100 scale)” value [13, 29] was 90 and the “Plant response rating, Sedge, Umbrella (0 to 100 scale, 0 is no effect and 100 is complete control)” value [14] was 95. For the same compound, the “Plant response rating, Rice (0 to 100 scale, 0 is no effect and 100 is complete control)” value (rice (Oryza sativa)) was 20, the “Plant response rating, Barnyardgrass (0 to 100 scale, 0 is no effect and 100 is complete control)” value [15] was 90 and the “Plant response rating, Ducksalad (0 to 100 scale, 0 is no effect and 100 is complete control)” value [16] was 70. The “Blackgrass plant response rating (0-100)” value ([17]; 31 g ai/ha) was 0, the “Blackgrass plant response rating (0 to 100 scale)” value ([17]; 125 g ai/ha) was 60 and the “Foxtail, Green plant response rating (0-100)” value ([18]; 31 g ai/ha) was 0. The “Foxtail, Green plant response rating (0 to 100 scale)” value ([18]; 125 g ai/ha) was 100, the “Ryegrass, Italian plant response rating (0-100)” value ([19]; 31 g ai/ha) was 50 and the “Ryegrass, Italian plant response rating (0 to 100 scale)” value ([19]; 125 g ai/ha) was 80. For the same compound, the “Wheat plant response rating (0-100)” value ([20]; 31 g ai/ha) was 40, the “Wheat plant response rating (0 to 100 scale)” value ([20]; 125 g ai/ha) was 90 and the “Soybean plant response rating (0-100)” value (soybean (Glycine max) [21]; 31 g ai/ha) was 0. The “Soybean plant response rating (0 to 100 scale)” value (soybean (Glycine max) [21]; 125 g ai/ha) was 70, the “Ragweed plant response rating (0-100)” value ([22]; 31 g ai/ha) was 0 and the “Ragweed plant response rating (0 to 100 scale)” value ([22]; 125 g ai/ha) was 0. For the same compound, the “Oat, Wild plant response rating (0-100)” value ([23]; 31 g ai/ha) was 50, the “Oat, Wild plant response rating (0 to 100 scale)” value ([23]; 125 g ai/ha) was 80 and the “Corn plant response rating (0-100)” value (corn (Zea mays) [24]; 31 g ai/ha) was 40. The “Corn plant response rating (0 to 100 scale)” value (corn (Zea mays) [24]; 125 g ai/ha) was 70, the “Barnyardgrass plant response rating (0-100)” value ([25]; 31 g ai/ha) was 50 and the “Barnyardgrass plant response rating (0 to 100 scale)” value ([25]; 125 g ai/ha) was 100. The “Kochia plant response rating (0-100)” value (kochia (Bassia scoparia) [26]; 31 g ai/ha) was 40, the “Kochia plant response rating (0 to 100 scale)” value (kochia (Bassia scoparia) [26]; 125 g ai/ha) was 90 and the “Amaranth, Palmer plant response rating (0-100)” value ([27]; 31 g ai/ha) was 30. The “Amaranth, Palmer plant response rating (0 to 100 scale)” value ([27]; 125 g ai/ha) was 100.
